{"source": "paper PMC5920098", "about": "“Identification of the allosteric P2X7 receptor antagonist [^11C]SMW139 as a PET tracer of microglial activation” (Scientific Reports, 2018)", "key": {"[1]": {"biological_target": "T1, human P2X7 receptor (hP2X7R) (Homo sapiens, UniProt Q99572)", "T1 sequence (Q99572 1-595)": "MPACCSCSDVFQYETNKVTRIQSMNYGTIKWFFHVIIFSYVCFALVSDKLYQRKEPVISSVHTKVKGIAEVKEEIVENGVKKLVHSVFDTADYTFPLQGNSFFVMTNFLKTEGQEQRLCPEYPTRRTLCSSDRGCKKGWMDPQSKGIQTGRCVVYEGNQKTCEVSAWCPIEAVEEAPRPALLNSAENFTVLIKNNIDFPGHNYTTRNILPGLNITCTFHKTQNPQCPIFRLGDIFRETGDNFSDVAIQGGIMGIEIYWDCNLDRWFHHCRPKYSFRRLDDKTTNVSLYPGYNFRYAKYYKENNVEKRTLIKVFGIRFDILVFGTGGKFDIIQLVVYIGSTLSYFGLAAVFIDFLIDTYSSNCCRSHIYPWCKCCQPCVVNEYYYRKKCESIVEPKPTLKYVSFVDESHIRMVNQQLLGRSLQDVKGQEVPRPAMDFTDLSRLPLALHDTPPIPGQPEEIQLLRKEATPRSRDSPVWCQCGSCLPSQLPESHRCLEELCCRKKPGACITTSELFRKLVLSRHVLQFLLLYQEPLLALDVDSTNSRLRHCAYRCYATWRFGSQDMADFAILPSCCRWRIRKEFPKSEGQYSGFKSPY", "test": "In vitro autoradiography on rat brain cryosections locally overexpressing hP2X7R", "conditions": "tracer 28 nM", "protocol": "Snap frozen brain tissue was cut on a cryostat into 20 μm sections.\nStereotactic injection of viral vector\nFemale Wistar rats (n=7) were anaesthetised by intraperitoneal (i.p.)\ninjection of ketamine (75 mg·kg-1); Ketalar, Pfizer, Brussels, Belgium) and medetomidin (1 mg·kg-1;\nDomitor, Pfizer) and positioned in a stereotactic head frame (Stoelting, Wood Dale, IL, USA). Right and\nleft striatum were injected with 4 µL of the hP2X7R vector (rAAV_3flag-hP2X7R) and of the control\nvector (rAAV_3flag-eGFP), respectively, at a rate of 0.25 µL·min-1, using a 30-gauge needle connected\nto a 10 µL Hamilton syringe. Coordinates used for striatal injection of the hP2X7R vector were:\nanteroposterior 0 cm, lateral -0.28 cm and dorsoventral -0.64 cm relative to bregma. Coordinates\nused for striatal injection of the eGFP vector were: anteroposterior 0 cm, lateral +0.28 cm and\ndorsoventral -0.64 cm relative to bregma. After injection, the needle was kept in place for another 5\nminutes before removing it slowly. To reverse the anaesthesia, the rats were injected intraperitoneally\nwith 0.5 mg·kg-1 atipamezol (Antisedan, Orion Pharma, Newburry, Berkshire, UK).\nRats were sacrificed for in\nvitro autoradiography at 3 (n=2) and 12 (n=5) weeks after vector injection.\nSnap frozen brains of female Wistar rats (rAAV_3flag-hP2X7R in right striatum; rAAV_3flag-eGFP in left\nstriatum; sacrificed 3 weeks (n = 2) or 12 weeks (n = 5) after vector injection) were cut on a Leica\nCM3050 S cryostat (Leica Biosystems, Nussloch, Germany) at -19 °C in transversal sections of 20 µm,\nthaw-mounted on SuperFrostTM Plus (Thermo Fisher Scientific, Waltham, MA, USA) object glasses,\ndried overnight on silica at 4 °C and then stored at -20 °C until use.\nUpon use, sections were thawed to room temperature for an hour\nbefore washing the sections in 5 mM Tris-HCl buffer (pH 7.4) at room temperature (3x 5 min). Sections\nwere dried in a cold stream of air before incubation (30 min) with 5 mM Tris-HCl buffer (pH 7.4)\nconcentration. After incubation, sections were washed (3x 1.5 min) in ice-cold 5 mM Tris-HCl buffer\n(pH 7.4) followed by a dip in ice-cold demineralised water. Sections were dried in a stream of air and\nthen exposed to a storage phosphor screen (BAS-IP SR 2040 E, GE Healthcare Europe GmbH,\nEindhoven, the Netherlands) and the screen was read out on a Typhoon FLA 7000 phosphor imager\n(GE Healthcare Europe GmbH, Eindhoven, the Netherlands).\nquantified using ImageQuantTL Analysis Toolbox (version 8.1, GE Healthcare). In case of the rat brain\nsections, regions of interest (ROIs) were defined around the striatum. […] Results are expressed as mean intensity, or as\npercentage of tracer binding, relative to total tracer binding in the contralateral striatum. Experiments\nwith rAAV_3flag-hP2X7R injected rat brains were performed as a duplicate of quadruplicates.\nStatistical analysis of quantitative autoradiography data (unpaired t test, two-tailed) was performed"}, "[2]": {"test": "Ex vivo metabolite analysis (plasma and brain) in healthy male Wistar rats", "parameters": "species or system rat", "experimental": "(§1) In vivo stability of analogues [^11C]1–3 and [^11C]SMW139 was assessed in healthy male Wistar rats at 15 and 45 minutes after injection of 30–40 MBq of formulated tracer. […] Results obtained in plasma correspond with previously reported stability results in rat liver microsomes. A higher level of intact tracer was found in brain (Table 3) for [^11C]1 and [^11C]SMW139 compared with [^11C]2 and [^11C]3. Despite optimisation of the extraction method, the percentage of total radioactivity that could be extracted from brain homogenates was not optimal for all four compounds (59 ± 6% for [^11C]1; 58 ± 7% for [^11C]2; 61 ± 4% for [^11C]3; 62 ± 3% for [^11C]SMW139). Therefore, based on its highest stability in plasma in vivo, [^11C]SMW139 was selected for further in vivo studies. As imaging studies were performed in female rats, plasma metabolites were also determined in two female rats, and no differences were found between plasma metabolism of [^11C]SMW139 in male and female rats (Table S1; Supplementary Information).\nFor each of the carbon-11 labelled benzamide analogues [^11C]1–3 and [^11C]SMW139, a biodistribution study and metabolite analysis in healthy male Wistar rats was performed, as described in detail in the Supplementary Information. Briefly, tracer distribution in blood, brain, and peripheral organs was measured at 5, 15, 30 and 45 min after intravenous injection of 13–23 MBq of formulated tracer. Metabolite analysis was performed at 15 and 45 min after intravenous injection of 30–40 MBq of formulated tracer in both blood plasma and brain. […]\n(§2) Ex vivo metabolite analysis\n(§3) Healthy male and female Wistar rats (254-440 g) were injected with 30-40 MBq (at start of experiment) of formulated tracer in the tail vein under isoflurane anaesthesia. Rats were sacrificed at 15 and 45 min (n = 3 per time point). Blood samples were obtained and the brain was excised. Blood samples were collected in heparin tubes (BD Vacutainer NH 119 I.U., 7 mL, BD Vacutainer Systems, Plymouth, UK) and centrifuged at 4,000 rpm for 5 min at 4 °C (Hettich Universal 32, Andreas Hettich GmbH & Co.KG, Tuttlingen, Germany). Plasma supernatant was separated from blood cells and loaded onto a tC18 Sep-Pak (Waters, Milford, MA, USA), followed by washing with 3 mL of water to obtain the polar fraction. The non-polar fraction was then eluted with 2 mL of MeOH and 1 mL of water and further analysed by HPLC. The brain was put in a falcon tube containing 4 mL MeCN/H2O (50:50 v/v) and homogenised with a disperser (IKA T18 B Ultra-Turrax, IKA®-Werke GmbH & Co.KG, Staufen, Germany) before centrifugation (5 min, 4,000 rpm, 20 °C, Hettich Universal 32). Supernatant was separated from brain precipitate and analysed by HPLC. Analytical HPLC was performed with Dionex (Sunnyvale, CA, USA) UltiMate 3000 HPLC equipment with Chromeleon software (version 6.8) on a Gemini C18 5-µm (10 x 250 mm) column (Phenomenex, Torrance, CA, USA) with gradient and a mixture of MeCN (A) and 0.1% DIPA in water (B) as eluent according to the following scheme: 0 min, […]\n(§4) 0.25 mL·min-1. All separate fractions were counted for radioactivity in a Wizard Gammacounter 1470 or 2480 (Wallac/PerkinElmer, Waltham, MA, USA)."}, "[3]": {"test": "Plasma metabolite analysis in female rAAV-hP2X7R rats", "assay_type": "in vivo", "conditions": "female rat", "experimental": "as §1, with “Information). […]” for “Information).”\nas §2, §3, §4\nTable S1: Metabolic profile of [11C]SMW139 in female rAAV-hP2X7R rats. […]"}}, "note": "Values joined by “and” are separate entries in the source; they are usually repeats but may differ in a detail not shown here. Equal values may be shown once.", "data": [{"smiles": "[11CH3]Oc1ccc(Cl)c(C(=O)NCC23CC4(F)CC(F)(CC(F)(C4)C2)C3)c1", "note": "[[^11C]SMW139]", "values": [{"measurement": "Mean intensity of tracer binding in rAAV_3flag-eGFP injected striatum", "setting": "[1]", "value": "69 ± 10", "unit": "counts"}, {"measurement": "Mean intensity of tracer binding in rAAV_3flag-hP2X7R injected striatum", "setting": "[1]", "value": "678 ± 55", "unit": "counts"}, {"measurement": "Increased binding in rAAV_3flag-hP2X7R injected striatum vs rAAV_3flag-eGFP injected striatum", "setting": "[1]; n = 2", "value": "10 ± 2 fold and 10 fold"}, {"measurement": "Intact tracer (%)", "setting": "[2]; rat brain, 15 min p.i.", "value": "79 ± 1", "unit": "%"}, {"measurement": "Intact tracer (%)", "setting": "[2]; rat brain, 45 min p.i.", "value": "66 ± 2", "unit": "%"}, {"measurement": "Intact tracer (%)", "setting": "[2]; rat plasma, 15 min p.i., male Wistar rats", "value": "60 ± 1", "unit": "%"}, {"measurement": "Intact tracer (%)", "setting": "[2]; rat plasma, 45 min p.i., male Wistar rats", "value": "42% and 42 ± 2%"}, {"measurement": "Intact tracer (%)", "setting": "[3]; Rat 1, 15 min", "value": 78, "unit": "%"}, {"measurement": "Intact tracer (%)", "setting": "[3]; Rat 1, 45 min", "value": 50, "unit": "%"}, {"measurement": "Intact tracer (%)", "setting": "[3]; Rat 2, 15 min", "value": 63, "unit": "%"}, {"measurement": "Intact tracer (%)", "setting": "[3]; Rat 2, 45 min", "value": 32, "unit": "%"}]}]}
